Source: patent EP0238198A2, “Method of modifying the lipid structure function and expression of cell membranes and pharmaceutical compositions for use therein” (Habib, Nagy Adly, priority 1986, dated 1987)
Like-named read-outs stand apart in the source and are kept apart here.

Tested on: type 2 herpes simplex virus (HSV)
Assay: HSV2 replication in human embryonic lung fibroblasts (virus yield)
Type: cell-based, HSV type 2
Conditions: Human alphaherpesvirus 2, Fibroblast, 28 h; for inhibition at 25 µM: stearic acid 25 µM; for inhibition at 50 µM: stearic acid 50 µM; for inhibition at 100 µM: stearic acid 100 µM
Protocol: Stearic and iodinated stearic acids were assayed for their inhibitory effects on the replication of type 2 herpes simplex virus (HSV) in sub-confluent monolayer cultures of human embryonic lung fibroblasts. […] This was accomplished by reacting hydriodic acid with oleic acid in acetic acid at 20°C. Excess iodine was removed at the end of the reaction by the addition of an excess of sodium thiosulphate, and the product fatty acid was extracted into hexane.
Bovine serum albumin conjugates of the fatty acids (prepared according to the method of A.A.Spector and-J.C.Hoak, J.Anal.Biochem. 1969, 32, 297-302) were added to the cell culture medium at various concentrations in the range 25 - 100 micromolar final concentration and at various times before and after (from 0 to 12 hours) infection with partially purified clinical isolates of HSV type 2, at a multiplicity of infection of 0.1 plaque forming units/cell.
28 hours after infection the titre of infectious virus in the culture supernatants was determined by standard infectious centre techniques on fresh human embryonic lung fibroblasts.

[1] = time relative to infection 0 hours, read-out: % reduction in virus yield compared with control cultures
[2] = time relative to infection 1 hours, read-out: % reduction in virus yield compared with control cultures
[3] = time relative to infection 2 hours, read-out: % reduction in virus yield compared with control cultures
[4] = time relative to infection 3 hours, read-out: % reduction in virus yield compared with control cultures
[5] = time relative to infection 4 hours, read-out: % reduction in virus yield compared with control cultures
[6] = time relative to infection 8 hours, read-out: % reduction in virus yield compared with control cultures
[7] = time relative to infection 12 hours, read-out: % reduction in virus yield compared with control cultures
[8] = time relative to infection -1 hours, read-out: % reduction in virus yield compared with control cultures
[9] = time relative to infection -2 hours, read-out: % reduction in virus yield compared with control cultures
[10] = time relative to infection -3 hours, read-out: % reduction in virus yield compared with control cultures
[11] = time relative to infection -4 hours, read-out: % reduction in virus yield compared with control cultures
[12] = time relative to infection -8 hours, read-out: % reduction in virus yield compared with control cultures
[13] = time relative to infection -12 hours, read-out: % reduction in virus yield compared with control cultures

CCCCCCCCCCCCCCCCCC(=O)O [stearic acid, octadecanoic acid]
inhibition at 75 µM (75 micromolar in the culture medium, cells treated for 3-4 hours before infection, read-out: maximum anti-viral activity (reduction in virus yield)): 48%
inhibition at 25 µM [1]: 0%
inhibition at 25 µM [2]: 5%
inhibition at 25 µM [3]: 0%
inhibition at 25 µM [4]: 10%
inhibition at 25 µM [5]: 1%
inhibition at 25 µM [6]: 0%
inhibition at 25 µM [7]: 3%
inhibition at 25 µM [8]: 6%
inhibition at 25 µM [9]: 14%
inhibition at 25 µM [10]: 4%
inhibition at 25 µM [11]: 2%
inhibition at 25 µM [12]: 10%
inhibition at 25 µM [13]: 0%
inhibition at 50 µM [1]: 7%
inhibition at 50 µM [2]: 8%
inhibition at 50 µM [3]: 0%
inhibition at 50 µM [4]: 10%
inhibition at 50 µM [5]: 0%
inhibition at 50 µM [6]: 5%
inhibition at 50 µM [7]: 9%
inhibition at 50 µM [8]: 27%
inhibition at 50 µM [9]: 30%
inhibition at 50 µM [10]: 27%
inhibition at 50 µM [11]: 8%
inhibition at 50 µM [12]: 0%
inhibition at 50 µM [13]: 0%
inhibition at 75 µM (stearic acid 75 µM, time relative to infection 0 hours, read-out: % reduction in virus yield compared with control cultures): 18%
inhibition at 75 µM (stearic acid 75 µM, time relative to infection 1 hours, read-out: % reduction in virus yield compared with control cultures): 0%
inhibition at 75 µM (stearic acid 75 µM, time relative to infection 2 hours, read-out: % reduction in virus yield compared with control cultures): 9%
inhibition at 75 µM (stearic acid 75 µM, time relative to infection 3 hours, read-out: % reduction in virus yield compared with control cultures): 0%
inhibition at 75 µM (stearic acid 75 µM, time relative to infection 4 hours, read-out: % reduction in virus yield compared with control cultures): 3%
inhibition at 75 µM (stearic acid 75 µM, time relative to infection 8 hours, read-out: % reduction in virus yield compared with control cultures): 10%
inhibition at 75 µM (stearic acid 75 µM, time relative to infection 12 hours, read-out: % reduction in virus yield compared with control cultures): 5%
inhibition at 75 µM (stearic acid 75 µM, time relative to infection -1 hours, read-out: % reduction in virus yield compared with control cultures): 41%
inhibition at 75 µM (stearic acid 75 µM, time relative to infection -2 hours, read-out: % reduction in virus yield compared with control cultures): 38%
inhibition at 75 µM (stearic acid 75 µM, time relative to infection -3 hours, read-out: % reduction in virus yield compared with control cultures): 47%
inhibition at 75 µM (stearic acid 75 µM, time relative to infection -4 hours, read-out: % reduction in virus yield compared with control cultures): 48%
inhibition at 75 µM (stearic acid 75 µM, time relative to infection -8 hours, read-out: % reduction in virus yield compared with control cultures): 3%
inhibition at 75 µM (stearic acid 75 µM, time relative to infection -12 hours, read-out: % reduction in virus yield compared with control cultures): 8%
inhibition at 100 µM [1]: 11%
inhibition at 100 µM [2]: 14%
inhibition at 100 µM [3]: 8%
inhibition at 100 µM [4]: 11%
inhibition at 100 µM [5]: 0%
inhibition at 100 µM [6]: 7%
inhibition at 100 µM [7]: 1%
inhibition at 100 µM [8]: 30%
inhibition at 100 µM [9]: 36%
inhibition at 100 µM [10]: 35%
inhibition at 100 µM [11]: 20%
inhibition at 100 µM [12]: 0%
